Experimental findings from ChEMBL document CHEMBL4673307, “Pyrrolo[2,3-b]pyridine-3-one derivatives as novel fibroblast growth factor receptor 4 inhibitors for the treatment of hepatocellular carcinoma” (Bioorg Med Chem, 2021) are described below.

Data set [1] has as its system Hep 3B2. The data set is described as follows: Antiproliferative activity against human Hep3B cells assessed as reduction in cell viability incubated for 72 hrs by Cell Titer-Glo assay.
In data set [2] the target is Fibroblast growth factor receptor 4 (Homo sapiens, UniProt P22455). Briefly: Inhibition of human FGFR4 using poly (Glu, Tyr)4:1 as substrate incubated for 20 mins followed by [33P]-ATP addition and measured after 120 mins by radiometric hotspot assay.
The nature of data set [3]: Metabolic stability in human liver microsomes assessed as intrinsic clearance at 1 uM incubated for 60 mins by LC-MS/MS analysis. In kind it is ADME, Microsome. The conditions noted are these: read-out: CLH.
The nature of data set [4]: Metabolic stability in human liver microsomes assessed as half life at 1 uM incubated for 60 mins by LC-MS/MS analysis. Format: ADME, Microsome.
Data set [5] is described as follows: Cmax in Sprague-Dawley rat at 10 mg/kg, po measured upto 24 hrs by LC-MS/MS analysis. Format: ADME, organism-based. More on the design: route oral, dose 10 mg/kg, time <=24. To be noted: in vivo.
Data set [6] can be described thus: Cmax in Sprague-Dawley rat at 1 mg/kg, iv measured upto 24 hrs by LC-MS/MS analysis. In kind it is ADME, organism-based. Set-up: route intravenous, dose 1 mg/kg, time <=24. The conditions noted are these: in vivo.
Data set [7] can be described thus: Tmax in Sprague-Dawley rat at 1 mg/kg, iv measured upto 24 hrs by LC-MS/MS analysis. In kind it is ADME, organism-based. The conditions noted are these: in vivo.
The nature of data set [8]: Half life in Sprague-Dawley rat at 1 mg/kg, iv measured upto 24 hrs by LC-MS/MS analysis. In kind it is ADME, organism-based. The conditions noted are these: in vivo.
The nature of data set [9]: AUClast in Sprague-Dawley rat at 10 mg/kg, po measured upto 24 hrs by LC-MS/MS analysis. Format: ADME, organism-based. Set-up: route oral, dose 10 mg/kg, time <=24. To be noted: in vivo.
Data set [10] can be described thus: MRTlast in Sprague-Dawley rat at 1 mg/kg, iv measured upto 24 hrs by LC-MS/MS analysis. In kind it is ADME, organism-based. To be noted: in vivo.
Data set [11] can be described thus: MRTlast in Sprague-Dawley rat at 10 mg/kg, po measured upto 24 hrs by LC-MS/MS analysis. Format: ADME, organism-based. To be noted: in vivo.
Data set [12] can be described thus: Oral bioavailability in Sprague-Dawley rat at 10 mg/kg measured upto 24 hrs by LC-MS/MS analysis. To be noted: in vivo. In kind it is ADME, organism-based.
The nature of data set [13]: Tmax in Sprague-Dawley rat at 10 mg/kg, po measured upto 24 hrs by LC-MS/MS analysis. Format: ADME, organism-based. To be noted: in vivo.
The nature of data set [14]: Half life in Sprague-Dawley rat at 10 mg/kg, po measured upto 24 hrs by LC-MS/MS analysis. In kind it is ADME, organism-based. To be noted: in vivo.
Data set [15] can be described thus: AUClast in Sprague-Dawley rat at 1 mg/kg, iv measured upto 24 hrs by LC-MS/MS analysis. Format: ADME, organism-based. The conditions noted are these: in vivo. Set-up: route intravenous, dose 1 mg/kg, time <=24.

Sequence of Fibroblast growth factor receptor 4 (P22455 whole entry): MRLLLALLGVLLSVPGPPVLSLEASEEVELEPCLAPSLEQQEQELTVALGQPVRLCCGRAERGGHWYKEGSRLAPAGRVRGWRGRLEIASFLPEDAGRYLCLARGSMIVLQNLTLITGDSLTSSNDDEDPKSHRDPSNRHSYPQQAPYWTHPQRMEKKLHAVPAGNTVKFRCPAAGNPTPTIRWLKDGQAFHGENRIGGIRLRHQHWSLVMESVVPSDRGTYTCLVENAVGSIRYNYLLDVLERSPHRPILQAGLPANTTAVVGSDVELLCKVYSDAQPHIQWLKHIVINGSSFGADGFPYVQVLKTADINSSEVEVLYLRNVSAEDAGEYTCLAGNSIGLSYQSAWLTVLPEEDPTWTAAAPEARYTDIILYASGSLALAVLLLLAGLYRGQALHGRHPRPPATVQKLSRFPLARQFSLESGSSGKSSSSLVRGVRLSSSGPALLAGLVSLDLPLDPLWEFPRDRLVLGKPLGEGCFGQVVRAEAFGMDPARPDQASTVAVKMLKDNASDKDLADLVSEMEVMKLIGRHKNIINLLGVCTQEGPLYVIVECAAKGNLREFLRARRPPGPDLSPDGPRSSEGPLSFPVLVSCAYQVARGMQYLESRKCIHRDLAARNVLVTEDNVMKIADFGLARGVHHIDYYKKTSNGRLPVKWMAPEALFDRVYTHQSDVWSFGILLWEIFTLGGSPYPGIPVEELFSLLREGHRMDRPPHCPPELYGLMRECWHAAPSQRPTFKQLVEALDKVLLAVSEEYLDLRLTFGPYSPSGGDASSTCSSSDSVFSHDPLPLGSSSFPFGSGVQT

Regarding `C=CS(=O)(=O)Nc1ccccc1Nc1ccc2c(C(=O)c3cc(OC)cc(OC)c3)c[nH]c2n1`, the IC50 in data set [1] was 1.03 µM.

For `C=CC(=O)N1CCN(CCn2cc(-c3cc(OC)cc(OC)c3)c3cnc(NC)nc32)CC1`, the 50% inhibitory concentration (IC50) in [2] was > 1 µM; in data set [1], > 10 µM.

On to `C=CC(=O)N1CCN(CCn2nc(-c3cc(OC)cc(OC)c3)c3cnc(NC)nc32)CC1`, for which the half-maximal inhibitory concentration (IC50) in data set [2] is > 1 µM; in [1], > 10 µM.

For the compound `CNc1ncc2c(-c3cc(OC)cc(OC)c3)noc2n1`, the IC50 is > 1 µM in data set [2] and > 10 µM in data set [1].

In the case of `CC#CC(=O)N1CCN(CCCn2cc(-c3cc(OC)cc(OC)c3)c3cnc(NC)nc32)CC1`, the concentration for half-maximal inhibition (IC50) is > 1 µM in data set [2] and > 10 µM in data set [1].

Turning to `C=CC(=O)NC1CCCCC1Nc1ccc2c(C(=O)c3cc(OC)cc(OC)c3)c[nH]c2n1` (centres undefined), in [1], the concentration for half-maximal inhibition (IC50) was found to be 0.258 µM.

Regarding `C=CC(=O)Nc1ccccc1Nc1ncc2c(-c3cc(OC)cc(OC)c3)n[nH]c2n1`, the 50% inhibitory concentration (IC50) in data set [1] was determined as 4.09 µM.

`C=CS(=O)(=O)N1CCN(CCCn2cc(-c3cc(OC)cc(OC)c3)c3cnc(NC)nc32)CC1`: the IC50 in data set [2] was > 1 µM; in data set [1], > 10 µM.

As for `CC#CC(=O)Nc1ccccc1Nc1ccc2c(C(=O)c3cc(OC)cc(OC)c3)c[nH]c2n1`, in data set [1], the IC50 is 0.602 µM.

Turning to `C=CC(=O)Nc1cccc(C)c1Nc1ncc2cc(-c3c(Cl)c(OC)cc(OC)c3Cl)ccc2n1`, the microsomal CLint at 1 µM in [3] came to 74.1 µL/min/mg. In [4], the half-life at 1 µM turned out to be 46.7 min. Moreover, the IC50 in [1] stood at 0.288 µM.

Take `C=CC(=O)N1CCN(CCn2cc(-c3ccc(OC)c(OC)c3)c3cnc(NC)nc32)CC1`: the figures for the IC50 in data set [2] and in data set [1] were > 1 µM and > 10 µM, respectively.

Take `C=CC(=O)Nc1cccc(C)c1Nc1ccc2c(C(=O)c3cc(OC)cc(OC)c3)c[nH]c2n1`: in [1], the half-maximal inhibitory concentration (IC50) was determined as 0.438 µM.

In the case of `C=CC(=O)N1CCN(CCCn2cc(-c3cc(OC)cc(OC)c3)c3ccc(NC)nc32)CC1`, the IC50 in [1] is > 10 µM.

On to `C=CC(=O)Nc1ccccc1Nc1ccc2c(C(=O)c3cc(OC)cc(OC)c3)c[nH]c2n1`, for which the microsomal CLint at 1 µM in data set [3] amounted to 55.9 µL/min/mg. The Cmax in [5] was determined as 33.9 ng/mL; in [6], 361 ng/mL. In addition, in data set [4], the half-life at 1 µM was 62 min. Further, the Tmax was found to be 4.98 min in data set [7] and 60 min in data set [13]. Further, the half-life was 51.6 min in data set [8] and 463 min in data set [14]. Moreover, the results for the area under the curve AUC(0-t) at 24 h in data set [9] and in data set [15] were 206 ng·h/mL and 277 ng·h/mL, respectively. Also, the MRT last at 24 h turned out to be 46.2 min in data set [10] and 227 min in [11]. The compound further returned a bioavailability in data set [12] of 6.65%.
